# Assay results published in US20230303493A1, “ANTIBACTERIAL ADJUVANTS AND APPLICATIONS THEREOF” (THE TRUSTEES OF PRINCETON UNIVERSITY, priority 2020, published 2023).
# System: P. aeruginosa PA14
# Assay: IC50 of compounds in conjunction with colistin relative to P. aeruginosa (growth, absorbance at 600 nm)
# Type: cell-based
# Settings: Pseudomonas aeruginosa, PA14, 17 h
# Procedure: Various compounds of formula I in Example 1 above were tested to determine IC50 of the compounds in conjunction with colistin relative to P. aeruginosa. IC50 testing of the compounds was conducted to the following protocol. Overnight cultures of P. aeruginosa PA14 were back diluted into fresh LB to an OD600 of 2.5×10^−3. Using polypropylene 96 well plates (Corning 3879), the potential antibiotic adjuvant was assayed with a 3-fold dilution starting with a […]. The concentration of colistin was held constant at sublethal concentration ([…]), using a freshly prepared colistin stock and minimizing transfers of colistin-containing solutions. After 17 h of aerobic growth at 37° C., 300 rpm, the absorbance at 600 nm was recorded.
row,SMILES,IC50 [µM]
1,"C#Cc1ccc(OCCCCCC(=O)Nc2ccnc(C(F)(F)F)c2)cc1 [Compound S20, 6-(4-Ethynylphenoxy)-N-(2-(trifluoromethyl)pyridin-4-yl)hexanamide]",15.5

# Same assay, conditions: Pseudomonas aeruginosa; P. aeruginosa PA14 in LB; colistin held constant at sublethal concentration (0.25 to 0.375 pg/mL); 3-fold dilution starting with a 250 concentration; 17 h aerobic growth at 37° C.; absorbance at 600 nm; read-out: IC50
row,SMILES,IC50 [µM]
1,"CSc1ccc(OCCCCCC(=O)Nc2ccnc(C(F)(F)F)c2)cc1 [Compound S17, 6-(4-(Methylthio)phenoxy)-N-(2-(trifluoromethyl)pyridin-4-yl)hexanamide]",14
2,"O=C(CCCCCN1CCN(c2ccccn2)CC1)Nc1ccnc(C(F)(F)F)c1 [Compound S41, 6-(4-(Pyridin-2-yl)piperazin-1-yl)-N-(2-(trifluoromethyl)pyridin-4-yl)hexanamide]",95
3,"CC(C)(C)c1cccc(OCCCCCC(=O)Nc2ccnc(C(F)(F)F)c2)c1 [Compound S28, 6-(3-(tert-Butyl)phenoxy)-N-(2-(trifluoromethyl)pyridin-4-yl)hexanamide]",0.8
4,"O=C(CCCCCOc1ccc2ccccc2c1)Nc1ccnc(C(F)(F)F)c1 [Compound S38, 6-(Naphthalen-2-yloxy)-N-(2-(trifluoromethyl)pyridin-4-yl)hexanamide]",2.6
5,"O=C(CCCCCOc1cccc2ccccc12)Nc1ccnc(C(F)(F)F)c1 [Compound S39, 6-(Naphthalen-1-yloxy)-N-(2-(trifluoromethyl)pyridin-4-yl)hexanamide]",15
6,"O=C(CCCCCOc1ccc(C(=O)OCc2ccccc2)cc1)Nc1ccnc(C(F)(F)F)c1 [Compound S30, Benzyl 4-((6-oxo-6((2-(trifluoromethyl)pyridin-4-yl)amino)hexyl)oxy)benzoate]",2.6
7,"C#Cc1ccccc1OCCCCCC(=O)Nc1ccnc(C(F)(F)F)c1 [Compound S22, 6-(2-Ethynylphenoxy)-N-(2-(trifluoromethyl)pyridin-4-yl)hexanamide]",15.5
8,"O=C(CCCCCN1CCN(c2cccnc2)CC1)Nc1ccnc(C(F)(F)F)c1 [Compound S42, 6-(4-(Pyridin-3-yl)piperazin-1-yl)-N-(2-(trifluoromethyl)pyridin-4-yl)hexanamide]",70
9,"CC(=O)c1ccccc1OCCCCCC(=O)Nc1ccnc(C(F)(F)F)c1 [Compound S32, 6-(2-Acetylphenoxy)-N-(2-(trifluoromethyl)pyridin-4-yl)hexanamide]",57
10,"COC(=O)c1ccc(OCCCCCC(=O)Nc2ccnc(C(F)(F)F)c2)cc1 [Compound S34, Methyl 4-((6-oxo-6-((2-(trifluoromethyl)pyridin-4-yl)amino)hexyl)oxy)benzoate]",88
11,"O=C(CCCCCN1CCN(c2ccccc2)CC1)Nc1ccnc(C(F)(F)F)c1 [Compound S40, 6-(4-Phenylpiperazin-1-yl)-N-(2-(trifluoromethyl)pyridin-4-yl)hexanamide]",50
12,"CC(C)(C)c1ccc(OCCCCCC(=O)Nc2ccnc(C(F)(F)F)c2)cc1 [Compound S27, 6-(4-(tert-Butyl)phenoxy)-N-(2-(trifluoromethyl)pyridin-4-yl)hexanamide]",2.6
13,"O=C(CCCCCN1CCN(c2ccncc2)CC1)Nc1ccnc(C(F)(F)F)c1 [Compound S43, 6-(4-(Pyridin-4-yl)piperazin-1-yl)-N-(2-(trifluoromethyl)pyridin-4-yl)hexanamide]",75
